{
  "source": "patent US20240024274A1",
  "about": "“O-ACETYLSERINE FOR THE USE THEREOF IN THE PREVENTION AND TREATMENT OF GLUCOSE INTOLERANCE AND THE ASSOCIATED DISEASES” (INSTITUT NATIONAL DE RECHERCHE POUR L'AGRICULTURE, …, priority 2020, published 2024)",
  "assay_type_in_all_cases": "in vivo",
  "key": {"[1]": {"system": "C57BL/6JRj mice fed a high fat diet", "assay": "Oral glucose tolerance test (OGTT) in mice on high fat diet (HFD) treated with OAS", "protocol": "Male C57BL/6JRj mice aged 7 weeks from Janvier Labs were fed a high fat diet (HFD, 45% fat and 20% sucrose) for 12 weeks. […] A first group of 10 mice fed this diet was treated with a daily dose of OAS of 200 mg/kg/d, at a frequency of 5 days per week during the 12 weeks of diet. The OAS used was the product sold as A6262_SIGMA by Sigma-Aldrich (CAS No. 66638-22-0). This group is the HFD+OAS group. […] This is the HFD group. […] An oral glucose tolerance test (OGTT) was performed on each of the three groups of mice. This test consists of monitoring the plasma glucose concentrations for 120 min, after the mice have received an oral glucose load. Thus, at T0 (fasting blood glucose), glucose (2 g/kg) is given orally to the animal. A drop of blood is taken from the tail every 30 minutes for 120 minutes so as to measure the blood glucose level with a strip glucose meter (Accu-Check Perfoma, available in pharmacies). Glucose tolerance is a reflection of the body's ability to regulate the return to a normal blood glucose level after a glucose load. The OGTT was performed at 5 weeks and 9 weeks after the start of the obesogenic diet. The results of this test show the installation of glucose intolerance as early as 5 weeks in the groups of mice on the HFD diet."}, "[2]": {"system": "C57BL/6JRj mice", "assay": "Oral glucose tolerance test (OGTT) in healthy mice, single dose of OAS with the glucose load", "conditions": "single dose OAS 1000 mg/kg along with glucose 2.5 g/kg oral; vs control group", "protocol": "Male C57BL/6JRj mice aged 7 weeks from Janvier Labs were fed with a conventional diet used in pet shops. A first group of 5 mice, not treated with OAS, served as a control group. A second group of 5 mice was treated with a single dose of OAS at 1000 mg/kg. The OAS used was the product sold under the name A6262 SIGMA by the company Sigma-Aldrich (CAS No. 66638-22-0). This group is the OAS treatment group. An oral glucose tolerance test (OGTT) was performed on each of the two groups of mice. This test consists of monitoring the plasma glucose concentrations for 120 min, after the mice have received an oral glucose load. Thus, at T0 (fasting blood glucose level), glucose (2.5 g/kg) is given orally to the animal. […] In the OGTT test, the OAS treatment group received a dose of 1000 mg/kg of OAS along with the oral glucose load. The control group received only the oral glucose load."}, "[3]": {"system": "C57BL/6JRj mice", "assay": "Oral glucose tolerance test (OGTT) in healthy mice after 5-day OAS treatment", "conditions": "OAS 1000 mg/kg daily for 5 days, vs control group; for area under the curve of the OGTT: glucose 2.5 g/kg oral", "protocol": "Male C57BL/6JRj mice aged 7 weeks from Janvier Labs were fed with a conventional diet used in pet shops. A first group of 10 mice, not treated with OAS, served as a control group. A second group of 10 mice was treated with a daily dose of OAS at 1000 mg/kg for 5 days. The OAS used was the product sold under the name A6262_SIGMA by the company Sigma-Aldrich (CAS No. 66638-22-0). This group is the OAS treatment group. An oral glucose tolerance test (OGTT) was performed on each of the two groups of mice. This test consists of monitoring the plasma glucose concentrations for 120 min, after the mice have received an oral glucose load. Thus, at T0 (fasting blood glucose level), glucose (2.5 g/kg) is given orally to the animal. A drop of blood is taken from the tail every 15 to 30 minutes for 90 minutes to measure the blood glucose level with a strip glucose meter (Accu-Check Perfoma, available in pharmacies). The OGTT was performed on the fifth day of treatment 2 h after the OAS treatment group received a dose of 500 mg/kg. At the time of the OGTT, the mice of the treatment group also received 500 mg/kg of OAS along with the oral glucose load. The control group received only the oral glucose load."}, "[4]": {"assay": "Epididymal adipose tissue weight of HFD mice after 12 weeks of diet and treatment", "conditions": "after 12 weeks of HFD and OAS 200 mg/kg/d, ****p<0.0001", "protocol": "Male C57BL/6JRj mice aged 7 weeks from Janvier Labs were fed a high fat diet (HFD, 45% fat and 20% sucrose) for 12 weeks. […] A first group of 10 mice fed this diet was treated with a daily dose of OAS of 200 mg/kg/d, at a frequency of 5 days per week during the 12 weeks of diet. The OAS used was the product sold as A6262_SIGMA by Sigma-Aldrich (CAS No. 66638-22-0). This group is the HFD+OAS group. […] This is the HFD group. […] These features are indicative of an establishment of obesity in the mice (FIG. 1)."}},
  "note": "Entries after “also recorded” stand apart in the source; their conditions may differ.",
  "data": [
    {"smiles": "CC(=O)OC[C@H](N)C(=O)O", "note": "[OAS, O-acetylserine]", "values": [
      {"measurement": "effect on glucose intolerance (OGTT)", "setting": "[1]; HFD mice, OAS 200 mg/kg/d 5 days per week, after 5 weeks", "value": "no visible effect"},
      {"measurement": "glucose intolerance (OGTT)", "setting": "[1]; HFD mice, OAS 200 mg/kg/d 5 days per week, after 9 weeks", "value": "significantly decreases"},
      {"measurement": "difference in area under the curve of the OGTT between control group and HFD+OAS group", "setting": "[1]; after 5 weeks, ****p<0.0001", "value": "significant"},
      {"measurement": "difference in area under the curve of the OGTT between HFD group and HFD+OAS group", "setting": "[1]; after 9 weeks, *p<0.05", "value": "significant"},
      {"measurement": "difference in plasma glucose concentration between control group and HFD+OAS group", "setting": "[1]; after 9 weeks, from t=60 min after oral glucose load", "value": "no longer significant"},
      {"measurement": "difference in plasma glucose concentration between HFD group and HFD+OAS group", "setting": "[1]; after 9 weeks, t=30 min after oral glucose load, p<0.0001", "value": "significant"},
      {"measurement": "area under the curve of the OGTT", "setting": "[2]", "value": "lower area under the curve than the control group; also recorded: significant"},
      {"measurement": "blood glucose levels at 15 min after the oral glucose load", "setting": "[2]", "value": "significantly lower; also recorded: significantly decreases"},
      {"measurement": "fasting blood glucose level", "setting": "[3]; conventional diet", "value": "tended to be lower; also recorded: decreases"},
      {"measurement": "blood glucose levels after the oral glucose load (hyperglycemia induced by an oral glucose load)", "setting": "[3]; 15 min, 30 min and 60 min after glucose 2.5 g/kg oral", "value": "significantly lower; also recorded: significantly decreases; also recorded: significant"},
      {"measurement": "area under the curve of the OGTT", "setting": "[3]", "value": "significant"},
      {"measurement": "area under the curve of the OGTT", "setting": "[3]; listed as O-acetylserine", "value": "lower than that of the control group"},
      {"measurement": "difference in epididymal adipose tissue weight between control group and HFD+OAS group", "setting": "[4]", "value": "statistically significant"}
    ]}
  ]
}
